Data: PubChem BioAssay (NCI)
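Exposure lasted 48 hours, with cells grown in 96-well plates and compounds tested at five concentrations. The concentration for 50% growth inhibition is given as GI50. TGI marks complete inhibition of growth.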

What was measured:
Test in all cases: NCI anticancer screen, dose series, 48 h
HCC-2998 colon = system: HCC-2998 colon
MDA-MB-231 breast = system: MDA-MB-231 breast
NCI-H522 lung = system: NCI-H522 lung
OVCAR-3 ovarian = system: OVCAR-3 ovarian
OVCAR-5 ovarian = system: OVCAR-5 ovarian
SF-295 CNS = system: SF-295 CNS
SK-MEL-2 melanoma = system: SK-MEL-2 melanoma
SK-MEL-28 melanoma = system: SK-MEL-28 melanoma
SK-MEL-5 melanoma = system: SK-MEL-5 melanoma
SNB-19 CNS = system: SNB-19 CNS

| SMILES | TGI (HCC-2998 colon) | TGI (MDA-MB-231 breast) | TGI (NCI-H522 lung) | TGI (OVCAR-3 ovarian) | TGI (OVCAR-5 ovarian) | TGI (SF-295 CNS) | TGI (SK-MEL-2 melanoma) | TGI (SK-MEL-28 melanoma) | TGI (SK-MEL-5 melanoma) | TGI (SNB-19 CNS) | GI50 (HCC-2998 colon) |
| --- | --- | --- | --- | --- | --- | --- | --- | --- | --- | --- | --- |
| CCN1CCCC(Nc2cc(C)nc(/N=C(/N)Nc3ccc(Cl)c(Cl)c3)n2)C1 (stereo unspecified) | 1.89 µM | 3.84 µM | 2.61 µM | 3.59 µM | 8.11 µM | 2.41 µM | 4.04 µM | 3.34 µM | 5.35 µM | 5.59 µM | – |
| COc1cc(OC)cc(-n2c(N)c(-c3nc4ccccc4n3C)c3ccc([N+](=O)[O-])cc3c2=O)c1 | > 100 µM | > 100 µM | > 100 µM | – | – | – | > 100 µM | > 100 µM | > 100 µM | > 100 µM | – |
| CC(=O)C12C[C@](C#N)(N3CCCCCC3)C1C=Cc1ccccc12 (stereo partly specified) | > 100 µM | > 100 µM | > 100 µM | > 100 µM | – | > 100 µM | – | > 100 µM | > 100 µM | > 100 µM | – |
| Cn1c2c(c3ccccc31)CCN1C(=O)C3SC21C1C(=O)N(c2ccccc2)C(=O)C31 (stereo unspecified) | > 100 µM | > 100 µM | > 100 µM | > 100 µM | > 100 µM | > 100 µM | – | > 100 µM | > 73.4 µM | > 100 µM | > 100 µM |
| Cc1nn(C(=O)c2ccncc2)c2c1C(c1cccc([N+](=O)[O-])c1)SC(N)=N2 (stereo unspecified) | > 10 µM | > 10 µM | > 10 µM | > 10 µM | > 10 µM | > 10 µM | > 10 µM | > 10 µM | > 10 µM | > 10 µM | – |
| CC1C2CC(C/C2=N/O)C1(C)C (stereo unspecified) | > 100 µM | > 100 µM | > 100 µM | > 100 µM | > 100 µM | > 100 µM | – | > 100 µM | > 100 µM | > 100 µM | – |
| [N-]=[N+]=NC[C@H]1OCO[C@H](CN=[N+]=[N-])[C@H]2OCCOCCOc3ccccc3OCCOCCO[C@@H]21 | > 100 µM | > 100 µM | > 100 µM | > 100 µM | – | > 100 µM | > 100 µM | > 100 µM | > 100 µM | > 100 µM | – |
| O=C(/C=C(\O)c1ccccc1)/C(=C/C(=O)c1ccccc1)NN=C(c1ccccc1)c1ccccc1 | 58.7 µM | > 100 µM | 63 µM | 67.1 µM | > 100 µM | > 100 µM | 84.2 µM | > 100 µM | 43 µM | > 100 µM | – |
| COc1cc([C@H]2Oc3c(OC)cc(CCCO)cc3[C@@H]2CO)ccc1O | > 100 µM | > 100 µM | > 100 µM | > 100 µM | > 100 µM | > 100 µM | > 100 µM | > 100 µM | > 100 µM | > 100 µM | – |
| CC(C)C(C/C=C1/CC(CO)(COC(=O)C2CCCCC2)OC1=O)C(C)C (stereo unspecified) | 59.8 µM | 37.4 µM | 34.1 µM | 34.5 µM | 40.7 µM | 29 µM | > 100 µM | 35.1 µM | > 100 µM | 29.8 µM | – |
| CC(C)=Nn1cnc(C(=N)C#N)c1N | > 100 µM | – | > 100 µM | > 100 µM | > 100 µM | > 100 µM | > 100 µM | > 100 µM | – | > 100 µM | – |
